Data published in US10131652B2, “Pyrimidinyloxy benzene derivatives as herbicides” (E. I. DU PONT DE NEMOURS AND COMPANY, priority 2014, dated 2018).
Like-named read-outs stand apart in the source and are kept apart here.

Experiments:
Assay in all cases: Test E pre-/postemergence plant response
Assay type in all cases: in vivo
[1] = system: lambsquarters (Chenopodium album); conditions: scale 0 to 100, read-out: Plant response rating, Lambsquarters; for pest or weed control at 16 g/ha: 16 g ai/ha; for pest or weed control at 31 g/ha: 31 g ai/ha; for pest or weed control at 62 g/ha: 62 g ai/ha; for pest or weed control at 125 g/ha: 125 g ai/ha
Procedure, shortened: (§1)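 Visual scores on a 0–100 scale (100 = complete control) were assigned against untreated controls 7–21 days after treatment in a controlled environment. Compounds, formulated with solvent plus surfactant, were applied to pre-emergence silt-loam sowings or to 1- to 4-leaf plants (2–18 cm) in potting medium.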

[2] = system: Italian ryegrass (Lolium multiflorum); conditions: scale 0 to 100, read-out: Plant response rating, Ryegrass, Italian; for pest or weed control at 16 g/ha: 16 g ai/ha; for pest or weed control at 31 g/ha: 31 g ai/ha; for pest or weed control at 62 g/ha: 62 g ai/ha; for pest or weed control at 125 g/ha: 125 g ai/ha
Procedure, shortened: as §1

[3] = system: blackgrass (Alopecurus myosuroides); conditions: scale 0 to 100, read-out: Plant response rating, Blackgrass; for pest or weed control at 16 g/ha: 16 g ai/ha; for pest or weed control at 31 g/ha: 31 g ai/ha; for pest or weed control at 62 g/ha: 62 g ai/ha; for pest or weed control at 125 g/ha: 125 g ai/ha
Procedure, shortened: as §1

[4] = system: speedwell (bird's-eye speedwell, Veronica persica); conditions: scale 0 to 100, read-out: Plant response rating, Speedwell; for pest or weed control at 16 g/ha: 16 g ai/ha; for pest or weed control at 62 g/ha: 62 g ai/ha; for pest or weed control at 125 g/ha: 125 g ai/ha
Procedure, shortened: as §1

[5] = system: wild mustard (Sinapis arvensis); conditions: Brassica, scale 0 to 100, read-out: Plant response rating, Mustard, Wild; for pest or weed control at 16 g/ha: 16 g ai/ha; for pest or weed control at 31 g/ha: 31 g ai/ha; for pest or weed control at 62 g/ha: 62 g ai/ha; for pest or weed control at 125 g/ha: 125 g ai/ha
Procedure, shortened: as §1

[6] = system: wild radish (Raphanus raphanistrum); conditions: scale 0 to 100, read-out: Plant response rating, Radish, Wild; for pest or weed control at 16 g/ha: 16 g ai/ha; for pest or weed control at 31 g/ha: 31 g ai/ha; for pest or weed control at 62 g/ha: 62 g ai/ha; for pest or weed control at 125 g/ha: 125 g ai/ha
Procedure, shortened: as §1

[7] = system: kochia (Kochia scoparia); conditions: Bassia scoparia, scale 0 to 100, read-out: Plant response rating, Kochia; for pest or weed control at 16 g/ha: 16 g ai/ha; for pest or weed control at 31 g/ha: 31 g ai/ha; for pest or weed control at 62 g/ha: 62 g ai/ha; for pest or weed control at 125 g/ha: 125 g ai/ha
Procedure, shortened: as §1

[8] = system: bluegrass (annual bluegrass, Poa annua); conditions: scale 0 to 100, read-out: Plant response rating, Bluegrass; for pest or weed control at 16 g/ha: 16 g ai/ha; for pest or weed control at 31 g/ha: 31 g ai/ha; for pest or weed control at 62 g/ha: 62 g ai/ha; for pest or weed control at 125 g/ha: 125 g ai/ha
Procedure, shortened: as §1

[9] = system: winter wheat (Triticum aestivum); conditions: scale 0 to 100, read-out: Plant response rating, Wheat, Winter; for plant injury at 16 g/ha: 16 g ai/ha; for plant injury at 62 g/ha: 62 g ai/ha; for plant injury at 125 g/ha: 125 g ai/ha
Procedure, shortened: as §1

[10] = system: spring barley (Hordeum vulgare); conditions: for plant injury at 16 g/ha: 16 g ai/ha; for plant injury at 31 g/ha: 31 g ai/ha; for plant injury at 62 g/ha: 62 g ai/ha; for plant injury at 125 g/ha: 125 g ai/ha
Procedure, shortened: as §1

[11] = system: pigweed (Amaranthus retroflexus); conditions: scale 0 to 100, read-out: Plant response rating, Pigweed; for pest or weed control at 16 g/ha: 16 g ai/ha; for pest or weed control at 31 g/ha: 31 g ai/ha; for pest or weed control at 62 g/ha: 62 g ai/ha; for pest or weed control at 125 g/ha: 125 g ai/ha
Procedure, shortened: as §1

[12] = post-emergence, 31 g ai/ha, Postemergence
[13] = post-emergence, Postemergence, scale 0 to 100, read-out: Plant response rating, Barley, Spring
[14] = pre-emergence, Preemergence, scale 0 to 100, read-out: Plant response rating, Barley, Spring

Fc1cccc(Oc2ncc(Cl)cn2)c1-c1cc(C(F)(F)F)on1 [Compound 168, 5-chloro-2-[2-[5-(trifluoromethyl)-3-isoxazolyl]-3-fluorophenoxy]pyrimidine] was tested, and the pest or weed control at 16 g/ha ([1]; post-emergence, Postemergence) was 75%, the pest or weed control at 31 g/ha ([1]; post-emergence, Postemergence) was 85% and the pest or weed control at 62 g/ha ([1]; post-emergence, Postemergence) was 90%. For the same compound, the pest or weed control at 125 g/ha ([1]; post-emergence, Postemergence) was 95%, the pest or weed control at 16 g/ha ([1]; pre-emergence, Preemergence) was 45% and the pest or weed control at 31 g/ha ([1]; pre-emergence, Preemergence) was 100%. For the same compound, the pest or weed control at 62 g/ha ([1]; pre-emergence, Preemergence) was 100%, the pest or weed control at 125 g/ha ([1]; pre-emergence, Preemergence) was 100% and the pest or weed control at 16 g/ha ([2]; post-emergence, Postemergence) was 5%. It also gave a pest or weed control at 31 g/ha ([2]; post-emergence, Postemergence) of 10%, a pest or weed control at 62 g/ha ([2]; post-emergence, Postemergence) of 20% and a pest or weed control at 125 g/ha ([2]; post-emergence, Postemergence) of 25%. The pest or weed control at 16 g/ha ([2]; pre-emergence, Preemergence) was 0%, the pest or weed control at 31 g/ha ([2]; pre-emergence, Preemergence) was 0% and the pest or weed control at 62 g/ha ([2]; pre-emergence, Preemergence) was 30%. It also gave a pest or weed control at 125 g/ha ([2]; pre-emergence, Preemergence) of 75%, a pest or weed control at 16 g/ha ([3]; post-emergence, Postemergence) of 15% and a pest or weed control at 31 g/ha ([3]; post-emergence, Postemergence) of 25%. For the same compound, the pest or weed control at 62 g/ha ([3]; post-emergence, Postemergence) was 35%, the pest or weed control at 125 g/ha ([3]; post-emergence, Postemergence) was 60% and the pest or weed control at 16 g/ha ([3]; pre-emergence, Preemergence) was 10%. For the same compound, the pest or weed control at 31 g/ha ([3]; pre-emergence, Preemergence) was 35%, the pest or weed control at 62 g/ha ([3]; pre-emergence, Preemergence) was 100% and the pest or weed control at 125 g/ha ([3]; pre-emergence, Preemergence) was 100%. For the same compound, the pest or weed control at 16 g/ha ([4]; post-emergence, Postemergence) was 80%, the pest or weed control at 31 g/ha [4, 12] was 75% and the pest or weed control at 62 g/ha ([4]; post-emergence, Postemergence) was 90%. The pest or weed control at 125 g/ha ([4]; post-emergence, Postemergence) was 100%, the pest or weed control at 16 g/ha ([4]; pre-emergence, Preemergence) was 100% and the pest or weed control at 62 g/ha ([4]; pre-emergence, Preemergence) was 100%. For the same compound, the pest or weed control at 125 g/ha ([4]; pre-emergence, Preemergence) was 100%, the pest or weed control at 16 g/ha ([5]; post-emergence, Postemergence) was 75% and the pest or weed control at 31 g/ha ([5]; post-emergence, Postemergence) was 95%. For the same compound, the pest or weed control at 62 g/ha ([5]; post-emergence, Postemergence) was 95%, the pest or weed control at 125 g/ha ([5]; post-emergence, Postemergence) was 95% and the pest or weed control at 16 g/ha ([5]; pre-emergence, Preemergence) was 80%. For the same compound, the pest or weed control at 31 g/ha ([5]; pre-emergence, Preemergence) was 80%, the pest or weed control at 62 g/ha ([5]; pre-emergence, Preemergence) was 95% and the pest or weed control at 125 g/ha ([5]; pre-emergence, Preemergence) was 100%. The pest or weed control at 16 g/ha ([6]; post-emergence, Postemergence) was 70%, the pest or weed control at 31 g/ha ([6]; post-emergence, Postemergence) was 75% and the pest or weed control at 62 g/ha ([6]; post-emergence, Postemergence) was 80%. The pest or weed control at 125 g/ha ([6]; post-emergence, Postemergence) was 85%, the pest or weed control at 16 g/ha ([6]; pre-emergence, Preemergence) was 0% and the pest or weed control at 31 g/ha ([6]; pre-emergence, Preemergence) was 45%. For the same compound, the pest or weed control at 62 g/ha ([6]; pre-emergence, Preemergence) was 100%, the pest or weed control at 125 g/ha ([6]; pre-emergence, Preemergence) was 100% and the pest or weed control at 16 g/ha ([7]; post-emergence, Postemergence) was 80%. The pest or weed control at 31 g/ha ([7]; post-emergence, Postemergence) was 80%, the pest or weed control at 62 g/ha ([7]; post-emergence, Postemergence) was 85% and the pest or weed control at 125 g/ha ([7]; post-emergence, Postemergence) was 85%. The pest or weed control at 16 g/ha ([7]; pre-emergence, Preemergence) was 35%, the pest or weed control at 31 g/ha ([7]; pre-emergence, Preemergence) was 100% and the pest or weed control at 62 g/ha ([7]; pre-emergence, Preemergence) was 100%. It also gave a pest or weed control at 125 g/ha ([7]; pre-emergence, Preemergence) of 100%, a pest or weed control at 16 g/ha ([8]; post-emergence, Postemergence) of 10% and a pest or weed control at 31 g/ha ([8]; post-emergence, Postemergence) of 5%. It also gave a pest or weed control at 62 g/ha ([8]; post-emergence, Postemergence) of 10%, a pest or weed control at 125 g/ha ([8]; post-emergence, Postemergence) of 15% and a pest or weed control at 16 g/ha ([8]; pre-emergence, Preemergence) of 0%. It also gave a pest or weed control at 31 g/ha ([8]; pre-emergence, Preemergence) of 10%, a pest or weed control at 62 g/ha ([8]; pre-emergence, Preemergence) of 80% and a pest or weed control at 125 g/ha ([8]; pre-emergence, Preemergence) of 100%. It also gave a plant injury at 16 g/ha ([9]; post-emergence, Postemergence) of 5%, a plant injury at 31 g/ha [9, 12] of 10% and a plant injury at 62 g/ha ([9]; post-emergence, Postemergence) of 25%. It also gave a plant injury at 125 g/ha ([9]; post-emergence, Postemergence) of 35%, a plant injury at 16 g/ha ([9]; pre-emergence, Preemergence) of 5% and a plant injury at 62 g/ha ([9]; pre-emergence, Preemergence) of 10%. It also gave a plant injury at 125 g/ha ([9]; pre-emergence, Preemergence) of 30%, a plant injury at 16 g/ha [10, 13] of 10% and a plant injury at 31 g/ha [10, 13] of 15%. For the same compound, the plant injury at 62 g/ha [10, 13] was 15%, the plant injury at 125 g/ha ([10]; post-emergence, Postemergence, scale 0 to 100 (0 no effect, 100 complete control), read-out: Plant response rating, Barley, Spring) was 25% and the plant injury at 16 g/ha [10, 14] was 0%. For the same compound, the plant injury at 31 g/ha [10, 14] was 15%, the plant injury at 62 g/ha [10, 14] was 30% and the plant injury at 125 g/ha [10, 14] was 35%. It also gave a pest or weed control at 16 g/ha ([11]; post-emergence, Postemergence) of 90%, a pest or weed control at 31 g/ha ([11]; post-emergence, Postemergence) of 80% and a pest or weed control at 62 g/ha ([11]; post-emergence, Postemergence) of 95%. The pest or weed control at 125 g/ha ([11]; post-emergence, Postemergence) was 95%, the pest or weed control at 16 g/ha ([11]; pre-emergence, Preemergence) was 55% and the pest or weed control at 31 g/ha ([11]; pre-emergence, Preemergence) was 100%. It also gave a pest or weed control at 62 g/ha ([11]; pre-emergence, Preemergence) of 100% and a pest or weed control at 125 g/ha ([11]; pre-emergence, Preemergence) of 100%.
